Reference: PubChem BioAssay (NCI)
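Assay format: 96-well plates, 48-hour exposure. The concentration for 50% growth inhibition is given as GI50. TGI is the concentration that stops growth completely.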

Columns and labels:
Assay in all cases: growth of human tumour cells (NCI), 48 h
BT-549 breast = system: BT-549 breast
KM12 colon = system: KM12 colon
SF-539 CNS = system: SF-539 CNS
U251 CNS = system: U251 CNS
IGROV1 ovarian = system: IGROV1 ovarian
HOP-62 NSCLC = system: HOP-62 NSCLC
SK-MEL-5 melanoma = system: SK-MEL-5 melanoma
HS 578T breast = system: HS 578T breast
OVCAR-8 ovarian = system: OVCAR-8 ovarian
M14 melanoma = system: M14 melanoma
MDA-MB-435 = system: MDA-MB-435
MCF7 breast = system: MCF7 breast
DU-145 prostate = system: DU-145 prostate
ACHN renal = system: ACHN renal
HCT-116 colon = system: HCT-116 colon
SF-295 CNS = system: SF-295 CNS
K-562 leukemia = system: K-562 leukemia
786-0 renal = system: 786-0 renal
UACC-257 melanoma = system: UACC-257 melanoma
NCI/ADR-RES ovarian = system: NCI/ADR-RES ovarian
SW-620 colon = system: SW-620 colon
OVCAR-4 ovarian = system: OVCAR-4 ovarian
CAKI-1 renal = system: CAKI-1 renal
TK-10 renal = system: TK-10 renal
SK-MEL-2 melanoma = system: SK-MEL-2 melanoma
UO-31 renal = system: UO-31 renal
SNB-19 CNS = system: SNB-19 CNS
SK-OV-3 ovarian = system: SK-OV-3 ovarian
HCT-15 colon = system: HCT-15 colon
RXF 393 renal = system: RXF 393 renal
OVCAR-5 ovarian = system: OVCAR-5 ovarian
HCC-2998 colon = system: HCC-2998 colon
A498 renal = system: A498 renal
SF-268 CNS = system: SF-268 CNS
SK-MEL-28 melanoma = system: SK-MEL-28 melanoma
NCI-H522 lung = system: NCI-H522 lung
COLO 205 colon = system: COLO 205 colon
MOLT-4 leukemia = system: MOLT-4 leukemia
LOX IMVI melanoma = system: LOX IMVI melanoma
EKVX NSCLC = system: EKVX NSCLC
MALME-3M melanoma = system: MALME-3M melanoma
A549 NSCLC = system: A549 NSCLC
UACC-62 melanoma = system: UACC-62 melanoma
SR leukemia = system: SR leukemia
HT29 colon = system: HT29 colon
NCI-H460 lung = system: NCI-H460 lung
NCI-H23 lung = system: NCI-H23 lung
SNB-75 CNS = system: SNB-75 CNS
CCRF-CEM leukemia = system: CCRF-CEM leukemia
NCI-H226 lung = system: NCI-H226 lung
T-47D breast = system: T-47D breast
HOP-92 NSCLC = system: HOP-92 NSCLC
MDA-MB-231 breast = system: MDA-MB-231 breast
SN12C renal = system: SN12C renal
HL-60(TB) leukemia = system: HL-60(TB) leukemia
PC-3 prostate = system: PC-3 prostate

## CCN(CC)c1ccc2c(c1)Oc1nc(N)c(C#N)c(N)c1C2Sc1ccc(F)cc1 (centres undefined)
BT-549 breast
  GI50: 1070 nM
  TGI: 2310 nM
KM12 colon
  GI50: 1210 nM
  TGI: 2490 nM
SF-539 CNS
  GI50: 1330 nM
  TGI: 2620 nM
U251 CNS
  GI50: 1230 nM
  TGI: 2560 nM
IGROV1 ovarian
  GI50: 1050 nM
  TGI: 2380 nM
HOP-62 NSCLC
  GI50: 1830 nM
  TGI: 3420 nM
SK-MEL-5 melanoma
  GI50: 1760 nM
  TGI: 3170 nM
HS 578T breast
  GI50: 1610 nM
  TGI: 4610 nM
OVCAR-8 ovarian
  GI50: 1600 nM
  TGI: 3020 nM
M14 melanoma
  GI50: 1490 nM
  TGI: 3010 nM
MDA-MB-435
  GI50: 1330 nM
  TGI: 2730 nM
MCF7 breast
  GI50: 1000 nM
  TGI: 2840 nM
DU-145 prostate
  GI50: 1650 nM
  TGI: 3010 nM
ACHN renal
  GI50: 1500 nM
  TGI: 2820 nM
HCT-116 colon
  GI50: 1140 nM
  TGI: 2660 nM
SF-295 CNS
  GI50: 1700 nM
  TGI: 3160 nM
K-562 leukemia
  GI50: 308 nM
  TGI: > 100000 nM
786-0 renal
  GI50: 1560 nM
  TGI: 3020 nM
UACC-257 melanoma
  GI50: 1860 nM
  TGI: 3330 nM
NCI/ADR-RES ovarian
  GI50: 2280 nM
  TGI: 5880 nM
SW-620 colon
  GI50: 1080 nM
  TGI: 2410 nM
OVCAR-4 ovarian
  GI50: 1750 nM
  TGI: 3180 nM
CAKI-1 renal
  GI50: 1550 nM
  TGI: 2910 nM
TK-10 renal
  GI50: 2690 nM
  TGI: 4210 nM
SK-MEL-2 melanoma
  GI50: 1690 nM
  TGI: 3100 nM
UO-31 renal
  GI50: 1120 nM
  TGI: 2330 nM
SNB-19 CNS
  GI50: 1410 nM
  TGI: 2740 nM
SK-OV-3 ovarian
  GI50: 2040 nM
  TGI: 3630 nM
HCT-15 colon
  GI50: 984 nM
  TGI: 2450 nM
RXF 393 renal
  GI50: 1710 nM
  TGI: 3170 nM
OVCAR-5 ovarian
  GI50: 1380 nM
  TGI: 2780 nM
HCC-2998 colon
  GI50: 1730 nM
  TGI: 3300 nM
A498 renal
  GI50: 1930 nM
  TGI: 3910 nM
SF-268 CNS
  GI50: 1540 nM
  TGI: 2990 nM
SK-MEL-28 melanoma
  GI50: 1520 nM
  TGI: 2890 nM
NCI-H522 lung
  GI50: 1800 nM
  TGI: 3310 nM
COLO 205 colon
  GI50: 1220 nM
  TGI: 2670 nM
MOLT-4 leukemia
  GI50: 315 nM
  TGI: > 100000 nM
LOX IMVI melanoma
  GI50: 433 nM
  TGI: 1530 nM
EKVX NSCLC
  GI50: 661 nM
  TGI: 2060 nM
MALME-3M melanoma
  GI50: 1670 nM
  TGI: 3090 nM
A549 NSCLC
  GI50: 1790 nM
  TGI: 3340 nM
UACC-62 melanoma
  GI50: 1630 nM
  TGI: 3100 nM
SR leukemia
  GI50: 334 nM
  TGI: > 100000 nM
HT29 colon
  GI50: 1530 nM
  TGI: 3320 nM
NCI-H460 lung
  GI50: 1280 nM
  TGI: 2750 nM
NCI-H23 lung
  GI50: 1370 nM
  TGI: 2900 nM
SNB-75 CNS
  GI50: 1490 nM
  TGI: 2820 nM

## CCCCCCNC(=O)Oc1ccc(/C(=C(/C)c2ccc(Cl)cc2)c2ccc(OCCN3CCCC3)cc2)cc1
BT-549 breast
  GI50: 1700 nM
  TGI: 3200 nM
KM12 colon
  GI50: 1980 nM
  TGI: 3740 nM
SF-539 CNS
  GI50: 1710 nM
  TGI: 3120 nM
U251 CNS
  GI50: 1540 nM
  TGI: 2930 nM
IGROV1 ovarian
  GI50: 1740 nM
  TGI: 3280 nM
HOP-62 NSCLC
  GI50: 1550 nM
  TGI: 2950 nM
SK-MEL-5 melanoma
  GI50: 1720 nM
  TGI: 3150 nM
HS 578T breast
  GI50: 1660 nM
  TGI: 3590 nM
OVCAR-8 ovarian
  GI50: 1720 nM
  TGI: 3360 nM
M14 melanoma
  GI50: 1720 nM
  TGI: 3180 nM
MDA-MB-435
  GI50: 1790 nM
  TGI: 3250 nM
MCF7 breast
  GI50: 52.5 nM
  TGI: 1970 nM
DU-145 prostate
  GI50: 1920 nM
  TGI: 3460 nM
ACHN renal
  GI50: 1710 nM
  TGI: 3080 nM
HCT-116 colon
  GI50: 1510 nM
  TGI: 3100 nM
SF-295 CNS
  GI50: 1730 nM
  TGI: 3170 nM
786-0 renal
  GI50: 1780 nM
  TGI: 3290 nM
CCRF-CEM leukemia
  GI50: 1780 nM
  TGI: 4980 nM
UACC-257 melanoma
  GI50: 1740 nM
  TGI: 3240 nM
NCI/ADR-RES ovarian
  GI50: 1680 nM
  TGI: 3300 nM
SW-620 colon
  GI50: 1670 nM
  TGI: 3130 nM
NCI-H226 lung
  GI50: 2020 nM
  TGI: 4470 nM
T-47D breast
  GI50: 1310 nM
  TGI: 2880 nM
OVCAR-4 ovarian
  GI50: 1840 nM
  TGI: 3750 nM
CAKI-1 renal
  GI50: 1480 nM
  TGI: 2820 nM
HOP-92 NSCLC
  GI50: 1160 nM
  TGI: 2420 nM
TK-10 renal
  GI50: 1620 nM
  TGI: 3140 nM
SK-MEL-2 melanoma
  GI50: 1890 nM
  TGI: 3510 nM
MDA-MB-231 breast
  GI50: 1730 nM
  TGI: 3220 nM
UO-31 renal
  GI50: 1240 nM
  TGI: 2520 nM
SN12C renal
  GI50: 1730 nM
  TGI: 3200 nM
SNB-19 CNS
  GI50: 1850 nM
  TGI: 3590 nM
SK-OV-3 ovarian
  GI50: 1630 nM
  TGI: 3010 nM
HCT-15 colon
  GI50: 1500 nM
  TGI: 3000 nM
RXF 393 renal
  GI50: 1700 nM
  TGI: 3260 nM
OVCAR-5 ovarian
  GI50: 2730 nM
  TGI: 10100 nM
HCC-2998 colon
  GI50: 1650 nM
  TGI: 3050 nM
A498 renal
  GI50: 3930 nM
  TGI: 17000 nM
SF-268 CNS
  GI50: 1770 nM
  TGI: 3720 nM
SK-MEL-28 melanoma
  GI50: 1720 nM
  TGI: 3160 nM
NCI-H522 lung
  GI50: 1780 nM
  TGI: 3370 nM
COLO 205 colon
  GI50: 1860 nM
  TGI: 3360 nM
MOLT-4 leukemia
  GI50: 1730 nM
  TGI: 3970 nM
LOX IMVI melanoma
  GI50: 1590 nM
  TGI: 2950 nM
EKVX NSCLC
  GI50: 2180 nM
  TGI: 6120 nM
MALME-3M melanoma
  GI50: 1710 nM
  TGI: 3240 nM
A549 NSCLC
  GI50: 1630 nM
  TGI: 3070 nM
UACC-62 melanoma
  GI50: 1750 nM
  TGI: 3220 nM
HT29 colon
  GI50: 1620 nM
  TGI: 3190 nM
NCI-H460 lung
  GI50: 1760 nM
  TGI: 3200 nM
HL-60(TB) leukemia
  GI50: 1630 nM
  TGI: 3740 nM
NCI-H23 lung
  GI50: 1780 nM
  TGI: 3310 nM
PC-3 prostate
  GI50: 1520 nM
  TGI: 2950 nM
SNB-75 CNS
  GI50: 1790 nM
  TGI: 8970 nM
